The values that follow come from patent US8822463B2, “Methylcyclohexane derivatives and uses thereof” (Sk Biopharmaceuticals Co., Ltd., priority 2010, dated 2014).

Assay [1] has as its system LPS-induced NO production in mouse monocytes (RAW). Description: LPS-induced NO production inhibition test, mouse monocytes (RAW). The settings on record: Monocyte, RAW cells, 20 ng/ml LPS, 24 hours, Griess reagent. The class given is cell-based. The procedure: (§1) Mouse monocytes (RAW) and mouse microglia (BV2) cells were cultured on a 96-well transparent plate (Nunc) in such a way that each of the wells contained 60,000 and 35,000 cells respectively. After 18 hours, when stabilized, the cells were treated with lipopolysaccharide (Sigma, USA, Cat No. L2630) in a morbid state derived from 20 ng/ml of Escherichia coli O111:B4 and 4 different concentrations (50 uM, 12.5 uM, 3.1 uM, and 0.8 uM) of the compounds synthesized according to Examples 1 to 55. Then, the cells were cultured for 24 hours, and a concentration of increased NO was measured. The NO concentration was determined by measuring absorption at a wavelength of 540 nm after a Griess reagent including 0.1% N-(1-naphthyl)ethylenediamine dihydrochloride, 1% sulfanilamide, and 2.5% phosphoric acid were added thereto.
In general terms: Griess reagent forms a coloured azo dye with nitrite.

For assay [2], the system named is LPS-induced NO production in mouse microglia (BV2). The experiment in a line: LPS-induced NO production inhibition test, mouse microglia (BV2). The assay is classed as cell-based. The note with it: BV-2, BV2 cells, 20 ng/ml LPS, 24 hours, Griess reagent. The procedure:
as §1

The subject of assay [3] is neuropathic pain (mechanical allodynia) in rats with caudal nerve damage. Description: Pain relief test using animal model (caudal nerve damage neuropathic pain, mechanical allodynia). The assay is classed as in vivo. The note with it: ip, rat, von Frey, reference concentration 30 mg/kg, read-out: Pain test results (% MPE, 50% tail withdrawal threshold). Here is the method:
Male rats (Sprague-Dawley, 150-200 g, 6-week old, Orient Bio Co., Ltd) were purchased and acclimated in an animal chamber for one week. The animal chamber was alternately turned on and off at a time interval of 12 hours, at a temperature of 22 to 25° C., and in a relative humidity of 40-60%, and water and feed was supplied ad libitum to the rats.
The rats were placed in a round acryl container (5.5 15, 6.5 18 cm, which varied according to the size of body) and only the tails thereof were taken out of the container and placed on a plate. To confirm a pain behavior corresponding to a mechanical stimulus, an up-down method (J. Neurosci. Methods 53:55-63) was performed using a von Frey filament so as to measure “50% tail withdrawal threshold.
During all the steps before surgery, anesthesia was maintained with a mixed gas including 2-3% enflurane and 95% oxygen.
The compounds were each prepared as a solution form by using 5% DMSO, 5% Cremophore, and 90% distilled water on a volumetric basis. Each of the solutions was intraperitoneally administered in a volume of 3 ml per kg of a rat. The concentration of the compounds was controlled according to a compound and the concentration of reference was 30 mg/kg. […]
Anti-allodynic effects of the compounds were described as mean±SEM, and were compared each other by referring to “% MPE (the percentage of maximum possible effect),” and analyzed using one-way ANOVA and Bonferroni's t-test. […] [% MPE=(the threshold with respect to time after the drug treatment−the threshold at 0 hr)/(15−the threshold at 0 hr)×100]

Setting [4] is: at 4 hours after intraperitoneal administration.
[5] abbreviates: at 1 hour after intraperitoneal administration.

Counter-ions that a name gives are not always drawn. Like-named read-outs stand apart in the source and are kept apart here.

Turning to `O=C(Nc1ccnc(Cl)c1)OC1CCC(COC(=O)N2CCCC2)CC1` (stereo not shown) [Example 23, pyrrolidine-1-carboxylic acid 4-(2-chloro-pyridin-4-ylcarbamoyloxy)-cyclohexylmethyl ester], the IC50 in assay [1] is 28.6 µM; in assay [2] it was greater than 50 µM. The inhibition in vivo in assay [3] (setting [4]) turned out to be 18.7%.
For the molecule `O=C(NCc1cccnc1)OC1CCC(COC(=O)N2CCCC2)CC1` (stereo not shown) [Example 8, pyrrolidine-1-carboxylic acid 4-(pyridin-3-ylmethylcarbamoyloxy)-cyclohexylmethyl ester], the IC50 in assay [1] is greater than 50 µM; in assay [2] it was 5.8 µM. The inhibition in vivo in assay [3] (setting [5]) was 11%.
With `O=C(NCc1ccncc1)OC1CCC(CNC(=O)N2CCCC2)CC1` (stereo not shown) [Example 54, pyridin-4-ylmethyl-carbamic acid 4-{[(pyrrolidine-1-carbonyl)-amino]-methyl}-cyclohexyl ester], the IC50 in assay [1] is 48.7 µM; in assay [2], greater than 50 µM. The inhibition in vivo in assay [3] (setting [5]) came out at 10.5%.
Turning to `O=C(NCc1ccc(Cl)nc1)OC1CCC(COC(=O)N2CCCC2)CC1` (stereo not shown) [Example 17, pyrrolidine-1-carboxylic acid 4-(6-chloro-pyridin-3-ylmethylcarbamoyloxy)-cyclohexylmethyl ester], the IC50 is 29.5 µM in assay [1] and 12.5 µM in assay [2]. The inhibition in vivo in assay [3] (setting [5]) is 5.8%.
On to `O=C(NCc1ccnc(Cl)c1)OC1CCC(COC(=O)N2CCCC2)CC1` (stereo not shown) [Example 16, pyrrolidine-1-carboxylic acid 4-(2-chloro-pyridin-4-ylmethylcarbamoyloxy)-cyclohexylmethyl ester], for which the IC50 in assay [1] turned out to be 27.9 µM; in assay [2], 10.8 µM. The inhibition in vivo in assay [3] (setting [4]) is 16.4%.
For the molecule `O=C(NC1CCC(COC(=O)N2CCCC2)CC1)OCc1ccncc1` (stereo not shown) [Example 42, pyrrolidine-1-carboxylic acid 4-(pyridin-4-ylmethoxycarbonylamino)-cyclohexylmethyl ester], the IC50 in assay [1] is 50 µM; in assay [2], greater than 50 µM. The inhibition in vivo in assay [3] (setting [4]) was found to be 57%.
Turning to `Cc1cccc(CNC(=O)OC2CCC(COC(=O)N3CCCC3)CC2)n1` (stereo not shown) [Example 15, pyrrolidine-1-carboxylic acid 4-(6-methyl-pyridin-2-ylmethylcarbamoyloxy)-cyclohexylmethyl ester], the figures for the IC50 in assay [1] and in assay [2] were 19.9 µM and 19.4 µM, respectively. Further, the inhibition in vivo in assay [3] (setting [5]) turned out to be 29.2%.
As to `O=C(Nc1ccncc1)OC1CCC(COC(=O)N2CCCC2)CC1` (stereo not shown) [Example 20, pyrrolidine-1-carboxylic acid 4-(pyridin-4-ylcarbamoyloxy)-cyclohexylmethyl ester], the IC50 in assay [1] was 50 µM; in assay [2], 37.9 µM. In assay [3] (setting [4]), the inhibition in vivo turned out to be 22%.
In the case of `O=C(NCCc1cccc[n+]1[O-])OC1CCC(COC(=O)N2CCCC2)CC1` (stereo not shown) [Example 5, pyrrolidine-1-carboxylic acid 4-[2-(1-oxy-pyridin-2-yl)-ethylcarbamoyloxy]-cyclohexylmethyl ester], the IC50 in assay [1] is greater than 50 µM; in assay [2], 48.7 µM.
On to `O=C(NCc1cccnc1Cl)OC1CCC(COC(=O)N2CCCC2)CC1` (stereo not shown) [Example 18, pyrrolidine-1-carboxylic acid 4-(2-chloro-pyridin-3-ylmethylcarbamoyloxy)-cyclohexylmethyl ester], for which the IC50 in assay [1] was found to be 5.7 µM; in assay [2], 18.3 µM. Moreover, the inhibition in vivo in assay [3] (setting [5]) was 22.5%.
In the case of `COc1ccc(CCNC2CCC(COC(=O)N3CCCC3)CC2)cc1` (stereo not shown) [Example 39, pyrrolidine-1-carboxylic acid 4-[2-(4-methoxy-phenyl)-ethylamino]-cyclohexylmethyl ester HCl salt], the IC50 in assay [1] and in assay [2] was greater than 50 µM each time.
`O=C(NCc1ccncc1)OC1CCC(CNC(=O)C2CCCC2)CC1` (stereo not shown) [Example 55, pyridin-4-ylmethyl-carbamic acid 4-[(cyclopentanecarbonyl-amino)-methyl]-cyclohexyl ester]: the IC50 in assay [1] is 25.6 µM; in assay [2], greater than 50 µM.
Turning to `O=C(OCC1CCC(OCc2cccc[n+]2[O-])CC1)N1CCCC1` (stereo not shown) [Example 36, pyrrolidine-1-carboxylic acid 4-(1-oxy-pyridin-2-ylmethoxy)-cyclohexylmethyl ester], the IC50 in assay [1] and in assay [2] was greater than 50 µM each time.
Take `O=C(NC1CCC(COC(=O)N2CCCC2)CC1)OCc1ccnc(Cl)c1` (stereo not shown) [Example 43, pyrrolidine-1-carboxylic acid 4-(2-chloro-pyridin-4-ylmethoxycarbonylamino)-cyclohexylmethyl ester]: the IC50 in assay [1] was found to be 10.5 µM; in assay [2], 12 µM.
As for `O=C(OCC1CCC(NCc2ccccc2)CC1)N1CCCC1` (stereo not shown) [Example 37, pyrrolidine-1-carboxylic acid 4-benzylaminocyclohexylmethyl ester HCl salt], the IC50 in assay [1] is 46.1 µM; in assay [2], greater than 50 µM.
As for `O=C(NCc1ccccn1)OC1CCC(COC(=O)N2CCCCC2)CC1` (stereo not shown) [Example 26], the IC50 turned out to be 46.1 µM in assay [1] and 36.8 µM in assay [2].
In the case of `O=C(NCc1cccc[n+]1[O-])OC1CCC(COC(=O)N2CCCC2)CC1` (stereo not shown) [Example 13, pyrrolidine-1-carboxylic acid 4-(1-oxy-pyridin-2-ylmethylcarbamoyloxy)-cyclohexylmethyl ester], the IC50 in assay [1] was 27.9 µM; in assay [2] it was greater than 50 µM.
`O=C(Nc1ccccn1)OC1CCC(COC(=O)N2CCCC2)CC1` (stereo not shown) [Example 21, pyrrolidine-1-carboxylic acid 4-(pyridin-2-ylcarbamoyloxy)-cyclohexylmethyl ester]: the values for the IC50 in assay [1] and in assay [2] were 15.9 µM and 44.8 µM, respectively. For the same molecule, the inhibition in vivo in assay [3] (setting [5]) is 35.2%.
As to `O=C(NC1CCC(COC(=O)N2CCCC2)CC1)OCc1ccccn1` (stereo not shown) [Example 40, pyrrolidine-1-carboxylic acid 4-(pyridin-2-ylmethoxycarbonylamino)-cyclohexylmethyl ester], the IC50 in assay [1] and in assay [2] was greater than 50 µM each time. Further, the inhibition in vivo in assay [3] (setting [4]) was found to be 11%.
With `O=C(NCc1ccccn1)OC1CCC(COC(=O)N2CCCC2)CC1` (stereo not shown) [Example 7, pyrrolidine-1-carboxylic acid 4-(pyridin-2-ylmethylcarbamoyloxy)-cyclohexylmethyl ester], the IC50 in assay [1] and in assay [2] was greater than 50 µM throughout.
As for `O=C(NCc1cccc(Cl)n1)OC1CCC(COC(=O)N2CCCC2)CC1` (stereo not shown) [Example 14, pyrrolidine-1-carboxylic acid 4-(6-chloro-pyridin-2-ylmethylcarbamoyloxy)-cyclohexylmethyl ester], the half-maximal inhibitory concentration (IC50) stood at 21.7 µM in assay [1] and 22.3 µM in assay [2].
Regarding `O=C(NCCc1ccc[n+]([O-])c1)OC1CCC(COC(=O)N2CCCC2)CC1` (stereo not shown) [Example 6, pyrrolidine-1-carboxylic acid 4-[2-(1-oxy-pyridin-3-yl)-ethylcarbamoyloxy]-cyclohexylmethyl ester], the IC50 in assay [1] is 41.2 µM; in assay [2] it was greater than 50 µM.

A word on the IC50: it is the concentration at which inhibition is half-maximal.
